Experimental data from article PMC3753236, “Glucocorticosteroids in Nano-Sterically Stabilized Liposomes Are Efficacious for Elimination of the Acute Symptoms of Experimental Cerebral Malaria” (PLoS ONE, 2013).
Structures can show the parent of a compound that is named as a salt. Where two headings read alike, the source gives them in different places. Each block holds one molecule with its values, some of them ahead of it.

Columns and labels:
[1] = cited from earlier work
[2] = system: non-chloroquine resistant P. falciparum; test: P. falciparum culture, 3H-hypoxanthine incorporation; assay type: cell-based, Plasmodium falciparum; settings: Plasmodium falciparum
Method: The parasite was grown in a human red blood cell culture (RPMI 1640, 7.5% bicarbonate, 50 µM hypoxanthine, 50 µg/ml gentamycin, and 7.5% human plasma) at 1% hematocrit and 2% parasitemia. Cultures containing predominantly ring forms were used; synchronization of the culture was performed if trophozoites represented more than 1–2% of the various developmental stages. Briefly, the culture was centrifuged and the supernatant replaced by 5% (isotonic) sorbitol. After 5 minutes at 37°C the culture was centrifuged again and the supernatant replaced by culture medium to obtain a final 1% hematocrit.
Drug testing was performed in 96-well microtiter plates incubated at 37°C in a 5% O2, 5% CO2, and 90% N2 gas mixture for 72 hours. After 48 hours, 1 µCi ^3H-hypoxanthine was added to each well and the plates were read the next day using a scintillation counter.

ECM = system: ECM; set-up: method as in Clemmer et al. [28]; settings: after the appearance of clinical signs of neuropathology; ref Clemmer et al. [28]; cited from earlier work
[3] = system: Plasmodium berghei ANKA (PbAus); test: Early treatment of ECM, PbAus-inoculated C57Bl/6 mice (with sequential artemisone)
Method: (§1) Plasmodium berghei ANKA (PbA; PbA MRA-311, CDC, Atlanta, GA, USA) was maintained in vivo by serial transfer of parasitized erythrocytes (PE) from infected to naïve mice. Experiments were also performed using a second strain of PbA, similarly maintained, and designated PbAus in the text (courtesy of Prof. G. Grau, University of Sydney, Australia).
(§2) Parasitemia was monitored by thin blood smears prepared from tail blood. These were stained with a 25% Giemsa solution, examined under a light microscope, and parasitemia determined as the percent of infected red blood cells per 10,000 erythrocytes. Disease severity was determined according to scoring of neurological symptoms and changes in weight and temperature, as previously described […] Parasitemias above 20% and the absence of neurological symptoms indicated severe anemic malaria.
(§3) For early ECM treatment, injections were given on days 3, 5, 7, and 9 p.i; for late treatment, treatment was given every other day, starting on day 5 p.i. for a total of at least two injections. Infected, non-treated control mice were injected with 5% dextrose or empty nSSL. Clinical signs and parasitemias were monitored and disease severity scored as described […] At each time-point, at least 3 mice from each group were chosen at random, deeply anesthetized, and brains were removed following intracardial perfusion (using saline, if organs were destined for real-time (rt)PCR analysis, or saline/formalin, if organs were destined for histopathological analysis). Organs destined for rtPCR analysis were snap-frozen in liquid nitrogen and stored at −80°C until use. Organs destined for immunohistology were immediately immersed in cryoprotectant solution (see below).

[4] = system: Plasmodium berghei ANKA (PbAus); test: Late-stage treatment of ECM followed by artemisone, PbAus-infected C57Bl/6 mice
Method: as §1, §2, §3

[5] = system: Plasmodium berghei ANKA (PbA); test: Early treatment of experimental cerebral malaria (ECM), ICR mice infected with PbA
Method: as §1, §2
as §3, with “described […] Surviving mice were treated with 2×10 mg/kg/d artemisone by intraperitoneal injection in order to achieve cure; mice were monitored for four weeks post-artemisone treatment in order to allow detection of possible late recrudescence.” for “described”

[6] = 72 h culture, 3H-hypoxanthine, read-out: IC50

SMILES: C[C@H]1C[C@H]2[C@@H]3CCC4=CC(=O)C=C[C@]4(C)[C@@]3(F)[C@@H](O)C[C@]2(C)[C@@]1(O)C(=O)CO [β-methasone]
- Potency relative to hydrocortisone ([1]; ref [15]): 25–30 fold

- IC50 [2]: 40 nM
SMILES: CCN(CC)CCCC(C)Nc1ccnc2cc(Cl)ccc12 (stereo not shown) [Chloroquine, chloroquine]

SMILES: CO[C@H]1O[C@@H]2O[C@@]3(C)CC[C@H]4[C@H](C)CC[C@@H]([C@H]1C)[C@@]24OO3 [artemether]
- Success rate of ECM rescue therapy (ECM): 43–46%

- IC50 [2, 6]: 0.13 nM
SMILES: C[C@@H]1CC[C@H]2[C@@H](C)C(=O)O[C@@H]3O[C@@]4(C)CC[C@@H]1[C@]32OO4 [Artemisinin]

SMILES: C[C@H]1[C@H](OC(=O)CCC(=O)O)O[C@@H]2O[C@@]3(C)CC[C@H]4[C@H](C)CC[C@@H]1[C@@]24OO3 [artesunate]
- Success rate of ECM rescue therapy (ECM): 43–46%

SMILES: C[C@H]1[C@H](N2CCS(=O)(=O)CC2)O[C@@H]2O[C@@]3(C)CC[C@H]4[C@H](C)CC[C@@H]1[C@@]24OO3 [Artemisone, reference compound]
- IC50 [2, 6]: 0.4 nM
- Outcome of artemisone treatment following nSSL-BMS ([3]; 2×20 mg/kg artemisone i.p. days 11–15 p.i. after early 10 mg/kg nSSL-BMS, monitored four weeks for recrudescence): complete cure
- Time to zero parasitemia after the first injection (majority of cases) ([3]; 2×20 mg/kg artemisone i.p. days 11–15 p.i. following early 10 mg/kg nSSL-BMS): ≤ 24 h
- Mice that relapsed and died of ECM (of the total 17 administered artemisone) ([3]; 2×20 mg/kg/d artemisone days 11–15 p.i. after 10 mg/kg free or nSSL-BMS): One
- Outcome of artemisone monotherapy ([3]; beginning on day 11 p.i.): ineffective
- Outcome of artemisone after nSSL-BMS started day 5 p.i. ([4]; 2×20 mg/kg/d artemisone on days 11–15 p.i., monitored three weeks): complete cure
- Outcome of artemisone after nSSL-BMS started day 7 p.i. ([4]; all remaining mice died of severe anemic malaria): ineffective
- Outcome of artemisone after nSSL-BMS started day 6 p.i. ([4]; subsequent artemisone administration): cure in all mice

- IC50 [2, 6]: 380 nM
SMILES: C=C[C@H]1C[N@@]2CC[C@H]1C[C@H]2[C@H](O)c1ccnc2ccc(OC)cc12 [Quinine, quinine]

SMILES: C[C@H]1C[C@@H]2[C@H]([C@@H](O)C[C@@]3(C)[C@H]2CC[C@]3(O)C(=O)COC(=O)CCC(=O)O)[C@@]2(C)C=CC(=O)C=C12 [MPS, methylprednisolone hemisuccinate sodium salt]
- IC50 [2, 6]: 14000 nM
- Survival rate on day 11 ([5]; 10 mg/kg/d on days 3, 5, 7, 9 p.i.): 33%
- Toxicity in ECM mice ([5]; 25 mg/kg/d, preliminary experiments): mild toxicity
- Potency relative to hydrocortisone ([1]; ref [14]): ~5 times

- IC50 [2, 6]: 0.1 nM
SMILES: C[C@H]1[C@@H](O)O[C@@H]2O[C@@]3(C)CC[C@H]4[C@H](C)CC[C@@H]1[C@@]24OO3 [Dihydroartemisinin, dihydroartemisinin]
